Data: patent US10040789B2, “1,3,4-thiadiazole compounds and their use in treating cancer” (AstraZeneca AB, priority 2015, dated 2018)
Like-named read-outs stand apart in the source and are kept apart here.

Tests used:
GLS1 = GLS1 (Homo sapiens (Human), UniProt O94925); experiment: GLS Enzyme Potency Assay (Glutamate Oxidase/AmplexRed coupled assay); format: biochemical
Description: (§1) The following assays were used to measure the effects of the compounds described herein: a) GLS Enzyme Potency Assay; b) GLS Cell Potency Assay; c) GLS Cell Proliferation Assay. During the description of the assays, generally: • i. The following abbreviations have been used: CO2=Carbon dioxide; DMEM=Dulbecco's Modified Eagle Medium; DMSO=Dimethyl sulphoxide; EDTA=Ethylenediaminetetraacetic acid; EGTA=Ethylene glycol tetraacetic acid; FCS=Foetal calf serum; h=Hour(s); NBS=Non-binding surface; SDS=Sodium dodecyl sulphate; TRIS=Tris(Hydroxymethyl)aminomethane. • ii. IC50 values were calculated using a smart fitting model in Genedata.
Assay a): GLS Enzyme Potency Assay
A Glutamate Oxidase/AmplexRed coupled assay was used to measure the ability of compounds to bind to and inhibit the activity of GLS1 in vitro. […] GLS1 was diluted to 2×working concentration and incubated at room temperature to allow the tetrameric/dimeric forms to reach steady state. Assay measurements were performed in buffer comprising 50 mM TRIS pH 7.8, 100 mM NaPO4, pH 7.8, 0.001% v/v Tween20. […] DMSO concentration was maintained at 2% by back filling with DMSO solution. […] 3 μL of 100 mM glutamine diluted in assay buffer was then added and the reaction incubated at room temperature for 60 minutes. […] An artefact version of the assay where the 6His tagged GLS protein and glutamine were replaced with assay buffer was also used to rule out non specific effects on the assay components.

[1] = biological target: cellular GLS activity in PC3 cells (Homo sapiens (Human), UniProt O94925); experiment: GLS Cell Potency Assay (PC3 coupled assay measuring cellular glutamate depletion); format: cell-based; details: PC3 cells, 6 h incubation, cellular glutamate depletion; read-out: Assay b) GLS cell MOA Mean IC50
Chain of cellular GLS activity in PC3 cells (O94925 55-669): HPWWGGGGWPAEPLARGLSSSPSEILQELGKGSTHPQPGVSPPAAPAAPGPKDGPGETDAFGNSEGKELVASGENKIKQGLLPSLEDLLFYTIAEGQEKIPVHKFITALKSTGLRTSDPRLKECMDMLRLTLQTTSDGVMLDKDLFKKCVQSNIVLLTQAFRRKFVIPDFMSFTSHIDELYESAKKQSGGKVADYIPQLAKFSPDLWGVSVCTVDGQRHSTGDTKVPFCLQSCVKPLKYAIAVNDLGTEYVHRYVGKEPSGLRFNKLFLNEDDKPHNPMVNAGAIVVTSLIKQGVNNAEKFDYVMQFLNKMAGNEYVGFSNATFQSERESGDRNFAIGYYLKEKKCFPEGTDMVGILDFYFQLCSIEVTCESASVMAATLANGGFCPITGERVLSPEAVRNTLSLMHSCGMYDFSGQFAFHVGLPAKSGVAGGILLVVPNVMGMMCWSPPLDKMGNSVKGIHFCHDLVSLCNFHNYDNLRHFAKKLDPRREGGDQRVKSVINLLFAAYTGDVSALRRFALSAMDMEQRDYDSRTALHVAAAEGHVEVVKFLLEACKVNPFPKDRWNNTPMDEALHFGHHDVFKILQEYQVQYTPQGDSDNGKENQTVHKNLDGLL
Description: as §1
Assay b): GLS Cell Potency Assay
Compounds were assessed for their potential to inhibit cellular GLS activity by use of a PC3 coupled assay measuring cellular glutamate depletion. […] DMSO concentration was maintained at 0.3% by back filling with DMSO solution. PC3 cells were grown in phenol free DMEM, 10% dialyzed FCS, 2 mM glutamine and following dispersal by trypsinisation were plated at 5.6×10^3 cells per well in 40 μl of growth medium directly into the 384 well assay plates containing dispensed compound. After incubation for 6 h at 37° C., 5% CO2 growth media was aspirated and cells lysed in 15 μl of buffer containing 10 mM TRIS pH7.4, 100 mM NaCl, 1 mM EDTA, 1 mM EGTA, 1 mM NaF, 20 mM Na4P2O7, 2 mM Na3VO4, 1% Triton X-100, 10% glycerol, 0.1% SDS and 0.5% deoxycholate. 4 μl Of cell lysate was then transferred to a 384 well NBS plate (Corning product code 3575) and 35 μl of […] Amplex Red, 0.1375 U/mL Horseradish Peroxidase, 0.044 U/mL glutamate oxidase, 100 mM TRIS pH7.5 was added.

NCI-H1703 cells = experiment: GLS Cell Proliferation Assay (NCI-H1703 cell proliferation); format: cell-based
Description: as §1
Assay c): GLS Cell Proliferation Assay
The ability of compounds to inhibit cell growth was measured using a 384 well plate NCI-H1703 cell proliferation assay. NCI-H1703 cells were grown in phenol red free RPMI1640, 10% FCS and 2 mM glutamine and seeded at a density of 750 cells per well in 40 μl of growth medium into clear-bottom 384 well assay plates (Corning product code 3712) and incubated for 24 h at 37° C., 5% CO2. Test compounds were prepared by dilution in 100% DMSO to give the correct dose range for 12 point concentration response and an appropriate volume (5-120 nl) dispensed directly into the assay plates containing plated cells. DMSO concentration was maintained at 0.3% by back filling with DMSO solution. Plates were incubated for 5 days at 37° C., 5% CO2, Sytox Green and Saponin added to final concentration of 2 μM and 0.25% respectively and incubated for 6 h prior to analysis. Plates were read on an Acumen eX3 (TTP Labtech) using 488 nm excitation and FITC filter set (500-530 nm) for emission. IC50 values were calculated by curve fitting to max inhibition of day zero growth using GeneData software analysis.

[2] = recombinant 6His tagged GLS protein (amino acids 63-669), 60 minutes reaction with glutamine
[3] = Homo sapiens, NCI-H1703, 120 h, NCI-H1703 cells, 5 days incubation, Sytox Green; read-out: Assay c) Prolif Mean IC50
[4] = Homo sapiens, 120 h; NCI-H1703 cells, 5 days incubation, Sytox Green; read-out: Assay c) Prolif Mean IC50

Chain of GLS1 (O94925 63-669): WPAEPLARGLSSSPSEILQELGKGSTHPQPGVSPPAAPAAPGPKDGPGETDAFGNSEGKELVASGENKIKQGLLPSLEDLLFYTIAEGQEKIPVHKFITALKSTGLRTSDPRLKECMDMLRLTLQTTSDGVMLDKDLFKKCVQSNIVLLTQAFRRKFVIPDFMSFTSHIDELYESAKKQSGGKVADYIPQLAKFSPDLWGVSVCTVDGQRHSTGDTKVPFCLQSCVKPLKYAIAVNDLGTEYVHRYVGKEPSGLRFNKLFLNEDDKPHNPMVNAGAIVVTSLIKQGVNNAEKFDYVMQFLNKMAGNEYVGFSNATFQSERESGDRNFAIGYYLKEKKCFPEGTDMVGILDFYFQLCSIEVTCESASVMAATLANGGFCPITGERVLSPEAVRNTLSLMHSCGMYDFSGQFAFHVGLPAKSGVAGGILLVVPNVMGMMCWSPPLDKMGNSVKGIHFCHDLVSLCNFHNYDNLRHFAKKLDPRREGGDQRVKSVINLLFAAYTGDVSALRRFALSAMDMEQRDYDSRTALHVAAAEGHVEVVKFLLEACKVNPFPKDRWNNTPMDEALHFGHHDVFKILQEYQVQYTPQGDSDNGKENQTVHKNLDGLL

SMILES | IC50 (GLS1; [2]) | IC50 [1] | IC50 (GLS1) | IC50 (NCI-H1703 cells; [3]) | IC50 (NCI-H1703 cells; [4])
COc1cccc([C@@H](C(=O)Nc2nnc(N[C@@H]3CCN(c4cccnn4)C3)s2)N2CCC2)c1 [Example 6(a), (2S)-2-(azetidin-1-yl)-2-(3-methoxyphenyl)-N-[5-[[(3R)-1-pyridazin-3-ylpyrrolidin-3-yl]amino]-1,3,4-thiadiazol-2-yl]acetamide] | 981 nM | 22 nM | – | 29.3 nM | –
Cc1ccccc1[C@@H](C(=O)Nc1nnc(N[C@@H]2CCN(c3cccnn3)C2)s1)N(C)C [Example 17, (2S)-2-(dimethylamino)-2-(o-tolyl)-N-[5-[[(3R)-1-pyridazin-3-ylpyrrolidin-3-yl]amino]-1,3,4-thiadiazol-2-yl]acetamide] | 187 nM | 10.7 nM | – | – | 163 nM
CN1CCc2ccccc2[C@@H]1C(=O)Nc1nnc(N[C@@H]2CCN(c3cccnn3)C2)s1 [Example 8(b), (1R)-2-methyl-N-[5-[[(3R)-1-pyridazin-3-ylpyrrolidin-3-yl]amino]-1,3,4-thiadiazol-2-yl]-3,4-dihydro-1H-isoquinoline-1-carboxamide] | – | 20.9 nM | 194 nM | – | 85.1 nM
CN(C)[C@H](C(=O)Nc1nnc(N[C@@H]2CCN(c3cccnn3)C2)s1)c1cccc(C#N)c1 [Example 13, (2S)-2-(3-cyanophenyl)-2-(dimethylamino)-N-[5-[[(3R)-1-pyridazin-3-ylpyrrolidin-3-yl]amino]-1,3,4-thiadiazol-2-yl]acetamide] | – | 11.3 nM | 226 nM | – | 76.8 nM

Now those with a lower IC50 [1], led by results:

IC50 (GLS1; [2]) | IC50 [1] | IC50 (GLS1) | SMILES | IC50 (NCI-H1703 cells; [3]) | IC50 (NCI-H1703 cells; [4])
53 nM | 1.91 nM | – | CN1CCc2ccccc2[C@H]1C(=O)Nc1nnc(N[C@@H]2CCN(c3cccnn3)C2)s1 [Example 8(a), (1S)-2-methyl-N-[5-[[(3R)-1-pyridazin-3-ylpyrrolidin-3-yl]amino]-1,3,4-thiadiazol-2-yl]-3,4-dihydro-1H-isoquinoline-1-carboxamide] | – | 8.81 nM
198 nM | 4.76 nM | – | COc1ccc([C@@H](C(=O)Nc2nnc(N[C@@H]3CCN(c4cccnn4)C3)s2)N(C)C)cc1 [Example 16, (2S)-2-(dimethylamino)-2-(4-methoxyphenyl)-N-[5-[[(3R)-1-pyridazin-3-ylpyrrolidin-3-yl]amino]-1,3,4-thiadiazol-2-yl]acetamide] | 131 nM | –
59.2 nM | 2.12 nM | – | Cc1cccc([C@@H](C(=O)Nc2nnc(N[C@@H]3CCN(c4cccnn4)C3)s2)N(C)C)c1 [Example 10, (2S)-2-(dimethylamino)-2-(3-methylphenyl)-N-[5-[[(3R)-1-pyridazin-3-ylpyrrolidin-3-yl]amino]-1,3,4-thiadiazol-2-yl]acetamide] | – | 21.2 nM
